Source: ChEMBL document CHEMBL4627375, “Monovalent protein-degraders - Insights and future perspectives” (Bioorg Med Chem Lett, 2020)

Assays:
[1] = biological target: Maternal embryonic leucine zipper kinase (Homo sapiens, UniProt Q14680); assay: Inhibition of MELK (unknown origin)
[2] = biological target: T1, Protein deacetylase HDAC6 (Homo sapiens, UniProt Q9UBN7); assay: Inhibition of HDAC6 (unknown origin)
T1 sequence (Q9UBN7 whole entry): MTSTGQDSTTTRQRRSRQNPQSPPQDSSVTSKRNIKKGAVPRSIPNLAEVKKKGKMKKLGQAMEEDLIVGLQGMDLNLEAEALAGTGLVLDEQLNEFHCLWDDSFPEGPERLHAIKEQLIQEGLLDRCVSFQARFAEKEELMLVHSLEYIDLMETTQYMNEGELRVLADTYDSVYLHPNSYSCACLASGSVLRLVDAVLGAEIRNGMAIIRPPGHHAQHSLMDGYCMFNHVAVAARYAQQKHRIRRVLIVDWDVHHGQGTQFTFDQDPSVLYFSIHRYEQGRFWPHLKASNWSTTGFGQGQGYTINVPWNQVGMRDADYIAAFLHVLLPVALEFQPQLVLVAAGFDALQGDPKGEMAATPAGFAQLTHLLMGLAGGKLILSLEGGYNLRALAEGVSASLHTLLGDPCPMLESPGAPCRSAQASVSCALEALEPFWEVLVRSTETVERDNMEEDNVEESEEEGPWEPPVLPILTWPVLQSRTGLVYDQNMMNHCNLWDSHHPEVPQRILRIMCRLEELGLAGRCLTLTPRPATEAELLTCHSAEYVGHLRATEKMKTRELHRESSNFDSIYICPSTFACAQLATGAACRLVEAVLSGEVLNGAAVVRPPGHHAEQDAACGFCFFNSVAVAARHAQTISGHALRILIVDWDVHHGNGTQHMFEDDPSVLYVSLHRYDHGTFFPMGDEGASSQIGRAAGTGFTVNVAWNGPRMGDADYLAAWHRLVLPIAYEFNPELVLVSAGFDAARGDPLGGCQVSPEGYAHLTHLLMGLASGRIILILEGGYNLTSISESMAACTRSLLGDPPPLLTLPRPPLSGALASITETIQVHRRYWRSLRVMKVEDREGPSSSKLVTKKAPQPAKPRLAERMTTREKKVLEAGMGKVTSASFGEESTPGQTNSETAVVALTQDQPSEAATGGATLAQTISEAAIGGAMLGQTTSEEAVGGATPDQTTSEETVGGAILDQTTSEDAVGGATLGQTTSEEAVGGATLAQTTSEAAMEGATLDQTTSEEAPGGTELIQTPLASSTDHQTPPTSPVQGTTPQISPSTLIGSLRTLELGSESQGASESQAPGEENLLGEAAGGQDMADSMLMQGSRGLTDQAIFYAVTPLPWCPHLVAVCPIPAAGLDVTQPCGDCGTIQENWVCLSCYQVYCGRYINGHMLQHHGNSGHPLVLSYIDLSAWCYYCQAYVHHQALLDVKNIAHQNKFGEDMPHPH

[3] = species: Homo sapiens; assay: Selectivity ratio, ratio of IC50 for HDAC6 (unknown origin) to Class 1 HDAC (unknown origin)
[4] = biological target: Protein phosphatase 1 regulatory subunit 15A (Homo sapiens, UniProt O75807); assay: Inhibition of amino-terminal MBP-tagged/carboxy-terminal His6-tagged human PPP1R15A (325 to 626 residues)
[5] = biological target: T2, Protein phosphatase 1 regulatory subunit 15B (Homo sapiens, UniProt Q5SWA1); assay: Inhibition of amino-terminal MBP-tagged/carboxy-terminal His6-tagged human PPP1R15B (325 to 626 residues)
T2 sequence (Q5SWA1 whole entry): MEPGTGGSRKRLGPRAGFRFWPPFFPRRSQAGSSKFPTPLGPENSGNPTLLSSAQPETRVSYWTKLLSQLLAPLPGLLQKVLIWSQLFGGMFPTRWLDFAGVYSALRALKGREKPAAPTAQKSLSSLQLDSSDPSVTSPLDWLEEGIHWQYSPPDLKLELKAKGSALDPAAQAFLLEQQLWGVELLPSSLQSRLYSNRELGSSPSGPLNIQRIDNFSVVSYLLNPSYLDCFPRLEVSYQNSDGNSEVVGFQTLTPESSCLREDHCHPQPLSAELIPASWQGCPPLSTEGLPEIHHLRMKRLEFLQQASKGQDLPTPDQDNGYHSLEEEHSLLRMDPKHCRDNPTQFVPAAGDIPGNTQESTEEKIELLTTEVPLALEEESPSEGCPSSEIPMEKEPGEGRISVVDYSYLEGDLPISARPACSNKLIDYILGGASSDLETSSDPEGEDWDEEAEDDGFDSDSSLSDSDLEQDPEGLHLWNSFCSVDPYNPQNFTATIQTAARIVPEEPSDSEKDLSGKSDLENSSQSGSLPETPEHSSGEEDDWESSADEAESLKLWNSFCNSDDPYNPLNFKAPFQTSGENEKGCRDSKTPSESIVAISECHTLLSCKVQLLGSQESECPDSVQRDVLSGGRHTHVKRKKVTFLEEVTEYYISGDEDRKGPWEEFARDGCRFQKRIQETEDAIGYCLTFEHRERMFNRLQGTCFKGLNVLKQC

Chain of Maternal embryonic leucine zipper kinase (Q14680 whole entry): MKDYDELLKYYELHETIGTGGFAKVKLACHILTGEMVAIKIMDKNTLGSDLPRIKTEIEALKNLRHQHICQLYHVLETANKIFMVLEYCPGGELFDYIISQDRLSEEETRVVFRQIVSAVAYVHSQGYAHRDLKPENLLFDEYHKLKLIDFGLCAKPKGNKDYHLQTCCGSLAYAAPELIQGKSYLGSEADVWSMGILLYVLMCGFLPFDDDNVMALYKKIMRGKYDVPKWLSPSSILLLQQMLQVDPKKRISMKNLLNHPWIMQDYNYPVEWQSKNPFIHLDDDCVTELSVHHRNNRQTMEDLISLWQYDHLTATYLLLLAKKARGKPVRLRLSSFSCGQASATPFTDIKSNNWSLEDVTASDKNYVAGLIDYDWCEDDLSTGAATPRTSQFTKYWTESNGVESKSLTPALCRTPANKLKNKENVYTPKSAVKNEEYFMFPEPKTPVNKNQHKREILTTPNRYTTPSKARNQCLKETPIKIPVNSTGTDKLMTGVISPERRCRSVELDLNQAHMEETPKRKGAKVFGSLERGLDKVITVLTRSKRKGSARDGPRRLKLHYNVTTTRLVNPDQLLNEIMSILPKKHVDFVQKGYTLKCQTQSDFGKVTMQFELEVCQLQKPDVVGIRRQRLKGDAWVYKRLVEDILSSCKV
Chain of Protein phosphatase 1 regulatory subunit 15A (O75807 whole entry, the tested form may be a part): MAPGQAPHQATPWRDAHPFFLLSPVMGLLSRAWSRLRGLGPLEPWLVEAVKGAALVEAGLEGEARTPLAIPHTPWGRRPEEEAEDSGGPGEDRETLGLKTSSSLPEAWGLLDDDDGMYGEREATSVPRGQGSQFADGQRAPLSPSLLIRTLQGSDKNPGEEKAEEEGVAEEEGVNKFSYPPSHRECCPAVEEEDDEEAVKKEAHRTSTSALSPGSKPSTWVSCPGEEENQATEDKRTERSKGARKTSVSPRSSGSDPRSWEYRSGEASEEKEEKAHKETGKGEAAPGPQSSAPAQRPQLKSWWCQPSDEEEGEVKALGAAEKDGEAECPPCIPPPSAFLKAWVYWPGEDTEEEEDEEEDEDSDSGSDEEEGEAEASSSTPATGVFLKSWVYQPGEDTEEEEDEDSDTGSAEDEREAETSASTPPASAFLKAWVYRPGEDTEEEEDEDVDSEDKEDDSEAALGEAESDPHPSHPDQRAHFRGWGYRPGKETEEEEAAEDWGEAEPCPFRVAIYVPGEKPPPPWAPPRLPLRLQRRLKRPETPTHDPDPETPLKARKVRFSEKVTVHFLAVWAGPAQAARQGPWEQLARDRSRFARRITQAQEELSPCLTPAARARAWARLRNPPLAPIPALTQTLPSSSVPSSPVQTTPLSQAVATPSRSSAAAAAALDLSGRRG

IC50 [1] [µM]	IC50 [2] [µM]	Ratio IC50 [3]	IC50 [4] [µM]	IC50 [5] [µM]	Compound
0.2 to 0.5	0.0047	200			O=C(NO)c1ccc(Cn2c(=O)n(CCc3ccccc3)c(=O)c3ccccc32)cc1
0.2 to 0.5			0.977	0.033	N=C(N)N/N=C/c1cccc(Cl)c1Cl
0.2 to 0.5					CNC(=O)COc1cc2cc(Nc3nc(N4C[C@H](C)C[C@H](C)C4)ncc3Cl)ccc2n(C)c1=O

Compound	IC50 [1] [µM]	IC50 [2] [µM]	Ratio IC50 [3]	IC50 [4] [µM]	IC50 [5] [µM]
COc1ccc(/C=C2\SC(=S)NC2=O)cc1C#C[Si](C)(C)C	0.2 to 0.5				
